Columns and labels:
[1] = molecular target: T1, Organic cation/carnitine transporter 2 (Rattus norvegicus, UniProt O70594); assay: TP_TRANSPORTER: inhibition of TEA uptake (TEA: 20 uM, MPTP: 2500 uM) in OCTN2-expressing HRPE cells; assay type: functional, cell-based; details: human
T1 sequence (O70594 whole entry): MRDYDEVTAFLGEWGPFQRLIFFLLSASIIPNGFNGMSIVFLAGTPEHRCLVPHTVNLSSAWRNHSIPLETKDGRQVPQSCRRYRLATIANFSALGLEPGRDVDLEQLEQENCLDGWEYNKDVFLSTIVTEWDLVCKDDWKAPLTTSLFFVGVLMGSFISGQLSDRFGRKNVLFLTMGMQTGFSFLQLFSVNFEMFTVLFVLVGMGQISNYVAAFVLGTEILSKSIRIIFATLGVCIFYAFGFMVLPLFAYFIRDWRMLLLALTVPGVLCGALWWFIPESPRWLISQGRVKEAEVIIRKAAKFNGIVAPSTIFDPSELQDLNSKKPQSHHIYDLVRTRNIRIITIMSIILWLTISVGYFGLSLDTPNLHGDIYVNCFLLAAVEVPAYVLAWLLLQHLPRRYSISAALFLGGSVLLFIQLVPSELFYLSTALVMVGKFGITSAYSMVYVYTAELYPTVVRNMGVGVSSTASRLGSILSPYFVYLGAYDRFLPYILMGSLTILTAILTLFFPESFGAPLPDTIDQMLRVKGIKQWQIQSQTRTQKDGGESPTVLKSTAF

[2] = molecular target: T2, OCTN2 (organic cation/carnitine transporter 2) (Homo sapiens, UniProt O76082); assay: (§1) TP_TRANSPORTER: inhibition of Carnitine uptake (Carnitine: 0.025 uM, MPTP: 2000 uM) in OCTN2-expressing HRPE cells; assay type: functional, cell-based; parameters: scale not given: the % may be the effect or the level left; details: HRPE cells expressing OCTN2, probe carnitine (0.025 uM), read-out: Activity
T2 sequence (O76082 whole entry): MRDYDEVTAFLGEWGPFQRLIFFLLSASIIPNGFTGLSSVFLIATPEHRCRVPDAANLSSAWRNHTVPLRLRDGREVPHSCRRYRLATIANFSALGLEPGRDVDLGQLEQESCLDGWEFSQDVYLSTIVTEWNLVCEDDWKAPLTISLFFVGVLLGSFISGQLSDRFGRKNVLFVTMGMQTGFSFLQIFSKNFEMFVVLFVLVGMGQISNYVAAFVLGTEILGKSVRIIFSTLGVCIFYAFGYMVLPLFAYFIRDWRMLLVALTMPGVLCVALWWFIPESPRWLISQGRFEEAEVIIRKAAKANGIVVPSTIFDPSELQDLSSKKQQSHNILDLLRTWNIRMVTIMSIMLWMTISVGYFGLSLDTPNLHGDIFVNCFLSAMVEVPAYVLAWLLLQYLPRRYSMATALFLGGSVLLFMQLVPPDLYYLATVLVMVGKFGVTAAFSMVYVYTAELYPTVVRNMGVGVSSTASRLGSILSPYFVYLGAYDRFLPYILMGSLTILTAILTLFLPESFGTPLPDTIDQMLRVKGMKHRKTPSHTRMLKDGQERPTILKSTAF

[3] = molecular target: T3, OCTN2 (organic cation/carnitine transporter 2) (Rattus norvegicus, UniProt O70594); assay: as §1; assay type: functional, cell-based; parameters: scale not given: the % may be the effect or the level left; details: human, HRPE cells expressing OCTN2, probe carnitine (0.025 uM); read-out: Activity
T3 sequence (O70594 whole entry): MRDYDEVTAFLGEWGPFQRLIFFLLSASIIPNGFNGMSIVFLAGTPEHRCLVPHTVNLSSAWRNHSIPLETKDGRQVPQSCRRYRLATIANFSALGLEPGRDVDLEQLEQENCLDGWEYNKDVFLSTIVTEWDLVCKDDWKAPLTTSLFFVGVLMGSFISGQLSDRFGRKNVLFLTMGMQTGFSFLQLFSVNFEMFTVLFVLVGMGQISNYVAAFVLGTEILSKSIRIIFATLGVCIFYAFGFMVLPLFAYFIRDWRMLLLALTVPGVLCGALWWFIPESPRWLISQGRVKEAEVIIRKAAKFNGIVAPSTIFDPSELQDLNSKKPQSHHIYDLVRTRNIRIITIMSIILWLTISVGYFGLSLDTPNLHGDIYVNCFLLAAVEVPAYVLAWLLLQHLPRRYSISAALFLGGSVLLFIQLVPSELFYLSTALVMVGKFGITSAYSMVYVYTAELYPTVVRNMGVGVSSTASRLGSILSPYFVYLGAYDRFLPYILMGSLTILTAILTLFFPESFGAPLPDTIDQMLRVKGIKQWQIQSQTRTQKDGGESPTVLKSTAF

[4] = molecular target: T1, Organic cation/carnitine transporter 2; assay: TP_TRANSPORTER: inhibition of TEA uptake (TEA: 20 uM, MPP+: 2500 uM) in OCTN2-expressing HRPE cells; assay type: functional, cell-based; details: human
[5] = molecular target: T1, Organic cation/carnitine transporter 2; assay: (§2) TP_TRANSPORTER: uptake in OCTN2-expressing HRPE cells; assay type: functional, cell-based; details: human
[6] = molecular target: T3, OCTN2 (organic cation/carnitine transporter 2); assay: TP_TRANSPORTER: inhibition of Carnitine uptake (Carnitine: 0.025 uM, Acetyl-L-carnitine: 500 uM) in OCTN2-expressing HRPE cells; assay type: functional, cell-based; parameters: scale not given: the % may be the effect or the level left; details: human, HRPE cells expressing OCTN2, probe carnitine (0.025 uM); read-out: Activity
[7] = molecular target: T1, Organic cation/carnitine transporter 2; assay: TP_TRANSPORTER: inhibition of TEA uptake (TEA: 20 uM, Amphetamine: 2500 uM) in OCTN2-expressing HRPE cells; assay type: functional, cell-based; details: human
[8] = molecular target: T3, OCTN2 (organic cation/carnitine transporter 2); assay: TP_TRANSPORTER: inhibition of Carnitine uptake (Carnitine: 0.025 uM, Betaine: 500 uM) in OCTN2-expressing HRPE cells; assay type: functional, cell-based; parameters: scale not given: the % may be the effect or the level left; details: human, HRPE cells expressing OCTN2, probe carnitine (0.025 uM); read-out: Activity
[9] = molecular target: T3, OCTN2 (organic cation/carnitine transporter 2); assay: in vitro; details: human, HRPE cells expressing OCTN2, probe carnitine (0.025 uM)
Description: (§3) TP_TRANSPORTER: inhibition of Carnitine uptake (Carnitine: 0.025 uM, Choline: 2000 uM) in OCTN2-expressing HRPE cells

[10] = molecular target: T2, OCTN2 (organic cation/carnitine transporter 2); assay: in vitro; details: HRPE cells expressing OCTN2, probe carnitine (0.025 uM)
Description: as §3

[11] = molecular target: T3, OCTN2 (organic cation/carnitine transporter 2); assay: in vitro; details: human, HRPE cells expressing OCTN2, probe carnitine (0.025 uM); remark: listed apart in the source
Description: TP_TRANSPORTER: inhibition of Carnitine uptake (Carnitine: 0.025 uM, Cimetidine: 2000 uM) in OCTN2-expressing HRPE cells

[12] = molecular target: T1, Organic cation/carnitine transporter 2; assay: TP_TRANSPORTER: inhibition of TEA uptake (TEA: 20 uM, Desipramine: 2500 uM) in OCTN2-expressing HRPE cells; assay type: functional, cell-based; details: human
[13] = molecular target: T2, OCTN2 (organic cation/carnitine transporter 2); assay: TP_TRANSPORTER: inhibition of Carnitine uptake (Carnitine: 0.025 uM, Desipramine: 500 uM) in OCTN2-expressing HRPE cells; assay type: functional, cell-based; parameters: scale not given: the % may be the effect or the level left; details: HRPE cells expressing OCTN2, probe carnitine (0.025 uM), read-out: Activity
[14] = molecular target: T1, Organic cation/carnitine transporter 2; assay: TP_TRANSPORTER: inhibition of TEA uptake (TEA: 20 uM, Guanidine: 2500 uM) in OCTN2-expressing HRPE cells; assay type: functional, cell-based; details: human
[15] = molecular target: T1, Organic cation/carnitine transporter 2; assay: TP_TRANSPORTER: inhibition of TEA uptake (TEA: 20 uM, Methanphetamine: 2500 uM) in OCTN2-expressing HRPE cells; assay type: functional, cell-based; details: human
[16] = molecular target: T1, Organic cation/carnitine transporter 2; assay: TP_TRANSPORTER: inhibition of TEA uptake (TEA: 20 uM, Norepinephrine: 2500 uM) in OCTN2-expressing HRPE cells; assay type: functional, cell-based; details: human
[17] = molecular target: T1, Organic cation/carnitine transporter 2; assay: TP_TRANSPORTER: inhibition of TEA uptake (TEA: 20 uM, Procainamide: 2500 uM) in OCTN2-expressing HRPE cells; assay type: functional, cell-based; details: human
[18] = molecular target: T4, Organic cation/carnitine transporter 2 (Homo sapiens, UniProt O76082); assay: as §2; assay type: functional, cell-based
T4 sequence (O76082 whole entry): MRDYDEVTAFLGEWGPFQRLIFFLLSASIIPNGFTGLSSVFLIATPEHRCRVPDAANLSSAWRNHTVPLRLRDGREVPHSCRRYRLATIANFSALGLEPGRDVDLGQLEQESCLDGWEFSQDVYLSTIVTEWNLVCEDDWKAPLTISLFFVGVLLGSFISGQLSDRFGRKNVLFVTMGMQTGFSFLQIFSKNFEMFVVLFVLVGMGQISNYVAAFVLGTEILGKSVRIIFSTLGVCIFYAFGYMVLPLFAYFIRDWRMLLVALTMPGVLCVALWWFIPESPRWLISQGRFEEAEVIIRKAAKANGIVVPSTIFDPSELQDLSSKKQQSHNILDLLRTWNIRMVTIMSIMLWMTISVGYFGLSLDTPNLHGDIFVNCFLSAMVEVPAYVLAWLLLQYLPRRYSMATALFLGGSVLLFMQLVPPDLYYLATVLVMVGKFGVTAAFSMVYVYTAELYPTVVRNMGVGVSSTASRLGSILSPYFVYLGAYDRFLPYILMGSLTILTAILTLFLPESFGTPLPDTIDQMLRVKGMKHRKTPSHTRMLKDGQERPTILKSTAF

[19] = molecular target: T1, Organic cation/carnitine transporter 2; assay: TP_TRANSPORTER: inhibition of TEA uptake (TEA: 20 uM, Serotonin: 2500 uM) in OCTN2-expressing HRPE cells; assay type: functional, cell-based; details: human
[20] = molecular target: T1, Organic cation/carnitine transporter 2; assay: TP_TRANSPORTER: inhibition of TEA uptake (TEA: 20 uM, THA: 2500 uM) in OCTN2-expressing HRPE cells; assay type: functional, cell-based; details: human
[21] = molecular target: T1, Organic cation/carnitine transporter 2; assay: TP_TRANSPORTER: inhibition of TEA uptake (TEA: 20 uM, TMA: 2500 uM) in OCTN2-expressing HRPE cells; assay type: functional, cell-based; details: human
[22] = molecular target: T3, OCTN2 (organic cation/carnitine transporter 2); assay: in vitro; details: human, HRPE cells expressing OCTN2, probe carnitine (0.025 uM); remark: listed apart in the source
Description: (§4) TP_TRANSPORTER: inhibition of Carnitine uptake (Carnitine: 0.025 uM, TEA: 2000 uM) in OCTN2-expressing HRPE cells

[23] = molecular target: T2, OCTN2 (organic cation/carnitine transporter 2); assay: in vitro; details: HRPE cells expressing OCTN2, probe carnitine (0.025 uM); remark: listed apart in the source
Description: as §4

[24] = substrate: CC[N+](CC)(CC)CC; assay: cells, lysate or membranes named
[25] = substrate: C[N+](C)(C)CC(O)CC(=O)[O-]; assay: as §2; assay type: functional, cell-based

In the case of `CN1CC=C(c2ccccc2)CC1`, the Inhibition [1] is reported as “inhibitor [50-75 % inhibition]”, the activity at 2000 µM [2] is reported as 47% and the activity at 2000 µM [3] is reported as 4%.

With `C[n+]1ccc(-c2ccccc2)cc1` the Inhibition [4] was “inhibitor [50-75 % inhibition]”.

With `CC(=O)O[C@H](CC(=O)[O-])C[N+](C)(C)C` [ACETYLCARNITINE] the Activity [5] was “substrate [+]” and the activity at 500 µM [6] was 1%.

In the case of `CC(N)Cc1ccccc1` (stereo unspecified) [AMPHETAMINE], the Inhibition [7] is reported as “inhibitor [20-30 % inhibition]”.

For `C[N+](C)(C)CC(=O)O` [BETAINE], the activity at 500 µM [8] was 51%.

Work on `C[N+](C)(C)CCO` [CHOLINE] yielded an activity at 2000 µM [9] of 24% and an activity at 2000 µM [10] of 82%.

`CN/C(=N/CCSCc1nc[nH]c1C)NC#N` [CIMETIDINE] was tested, and the activity at 2000 µM [11] was 29%.

`CNCCCN1c2ccccc2CCc2ccccc21` [DESIPRAMINE] was tested, and the Inhibition [12] was “inhibitor [90-95 % inhibition]” and the activity at 500 µM [13] was 0%.

In the case of `N=C(N)N` [GUANIDINE], the Activity [14] is reported as “is not an inhibitor [-]”.

With `CN[C@@H](C)Cc1ccccc1` [METHAMPHETAMINE] the Inhibition [15] was “inhibitor [20-30 % inhibition]”.

For `NC[C@H](O)c1ccc(O)c(O)c1` [NOREPINEPHRINE], the Activity [16] was “is not an inhibitor [-]”.

With `CCN(CC)CCNC(=O)c1ccc(N)cc1` [PROCAINAMIDE] the Inhibition [17] was “inhibitor [50-75 % inhibition]”.

With `CCC(=O)OC(CC(=O)[O-])C[N+](C)(C)C` (stereo unspecified) [Propionyl-Carnitine] the Activity [5] was “substrate [+]” and the Activity [18] was “substrate [+]”.

With `NCCc1c[nH]c2ccc(O)cc12` [SEROTONIN] the Activity [19] was “is not an inhibitor [-]”.

With `CCCCCC[N+](CCCCCC)(CCCCCC)CCCCCC` [TETRAHEXYLAMMONIUM] the Inhibition [20] was “inhibitor [90-95 % inhibition]”.

With `C[N+](C)(C)C.[Cl-]` [TETRAMETHYLAMMONIUM] the Inhibition [21] was “inhibitor [20-30 % inhibition]”.

`CC[N+](CC)(CC)CC` [TETRYLAMMONIUM] showed an activity at 2000 µM [22] of 4% and an activity at 2000 µM [23] of 40%.

B1: Organic cation/carnitine transporter 2 (Rattus norvegicus) (protein)
chain: MRDYDEVTAFLGEWGPFQRLIFFLLSASIIPNGFNGMSIVFLAGTPEHRCLVPHTVNLSSAWRNHSIPLETKDGRQVPQSCRRYRLATIANFSALGLEPGRDVDLEQLEQENCLDGWEYNKDVFLSTIVTEWDLVCKDDWKAPLTTSLFFVGVLMGSFISGQLSDRFGRKNVLFLTMGMQTGFSFLQLFSVNFEMFTVLFVLVGMGQISNYVAAFVLGTEILSKSIRIIFATLGVCIFYAFGFMVLPLFAYFIRDWRMLLLALTVPGVLCGALWWFIPESPRWLISQGRVKEAEVIIRKAAKFNGIVAPSTIFDPSELQDLNSKKPQSHHIYDLVRTRNIRIITIMSIILWLTISVGYFGLSLDTPNLHGDIYVNCFLLAAVEVPAYVLAWLLLQHLPRRYSISAALFLGGSVLLFIQLVPSELFYLSTALVMVGKFGITSAYSMVYVYTAELYPTVVRNMGVGVSSTASRLGSILSPYFVYLGAYDRFLPYILMGSLTILTAILTLFFPESFGAPLPDTIDQMLRVKGIKQWQIQSQTRTQKDGGESPTVLKSTAF
For B1, the Km [24] was 63 µM and the Km [25] was 14.8 µM.
